Molecules are shown by their SMILES.

By EC50 is commonly meant the concentration giving half of the maximal effect. High values mean a less potent agent, low ones a more potent agent. As a reminder, the CC50 is the concentration giving 50% cytotoxicity.

Series [1] deals with HCV genotype 1b (HCV-1b) replicon cells. The series can be described thus: HCV genotype 1b replicon luciferase assay (EC50). The class given is cell-based, hepatitis C virus genotype 1b (Con1 clone). The conditions noted are these: 3 days, luciferase (Bright-Glo). In outline:
(§1)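 Replicon cells, 8000/well, 3 d, 37 °C; 6-pt 5-fold dilution from 100, 10 or 1 nM, 0.5% DMSO, duplicates; Bright-Glo luminescence → EC50 (nonlinear fit). 1a = H77 K1691R/K2040R/S2204I; 1b = Con1 E1202G/T1280I/K1846T.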
(In general: Replicon systems follow genome replication, usually without infectious particles.)

Series [2] is described as follows: Cell Titer-fluor cell activity assay in HCV-1b replicon cells (CC50). The class given is cell-based. Put shortly:
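CC50 derived by nonlinear fitting of inhibition % from Cell Titer-fluor signal (405/515 nm, 30 min). Cells: genotype 1b Con1 replicon carrying E1202G, T1280I, K1846T, seeded 8000/well with compound for 3 days, 37 °C, 0.5% DMSO; 6 points, 5-fold dilution, top 100, 10 or 1 nM, duplicates.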

Series [3] relates to HCV genotype 1a (HCV-1a) replicon cells. Briefly: HCV genotype 1a replicon luciferase assay (EC50). The settings on record: Hepatitis C virus, 72 h, 3 days, luciferase (Bright-Glo). The class given is cell-based, hepatitis C virus genotype 1a (H77 clone). Put shortly:
as §1

Take `COC(=O)N[C@H](C(=O)N1CCC[C@H]1c1ccc(-c2ccc(-c3ccc(-c4cnc([C@@H](NC(=O)[C@@H](NC(=O)OC)[C@@H](C)OC)C(C)C)[nH]4)cc3)cc2)[nH]1)C(C)C` [AG_102]: the EC50 in series [1] (Hepatitis C virus, 72 h) was in the range of 0.001 to 0.1 nM; in series [3] it was 1 to 10 nM. Also, in series [2], the CC50 at 3 days was > 1 nM.
The like results for `COC(=O)N[C@H](C(=O)N1CCC[C@H]1c1ncc(-c2ccc(-c3ccc(-c4cnc(C5C6CCC(C6)[C@H]5C(=O)NCc5nccs5)[nH]4)cc3)cc2)[nH]1)[C@@H](C)OC` (stereo partly drawn) [AA_219_A] were, in that order, 0.001 to 0.1 nM, 1 to 10 nM and > 1 nM.
For `COC(=O)NC(C(=O)N1CCCC1c1ccc(-c2ccc3c(c2)C(C)(C)c2cc(-c4cnc([C@@H]5CCCN5C(=O)[C@@H](NC(=O)OC)C(C)C)[nH]4)ccc2-3)[nH]1)[C@@H](C)OC` (stereo partly drawn) [AG_085], the EC50 in series [1] (Hepatitis C virus, 72 h) lay in the range of 0.001 to 0.1 nM; in series [3], 10 to 100 nM. Further, in series [2], the cytotoxic concentration (CC50) at 3 days is > 1 nM.
The like results for `COC(=O)N[C@H](C(=O)N1CCC[C@H]1c1ncc(-c2ccc(-c3ccc(-c4cc(Cl)c([C@@H]5CCCN5C(=O)[C@@H](NC(=O)OC)[C@@H](C)OC)[nH]4)cc3)cc2)[nH]1)[C@@H](C)OC` [AG_094] were, in that order, 0.001 to 0.1 nM, 0.101 to 1 nM and > 1 nM.
The like results for `COC(=O)N[C@H](C(=O)N1CCC[C@H]1c1ncc(-c2ccc(-c3ccc(-c4cnc(C5C6CCC(C6)[C@H]5C(=O)NCc5ccncc5)[nH]4)cc3)cc2)[nH]1)[C@@H](C)OC` (stereo partly drawn) [AA_248_A] were, in that order, 0.101 to 1 nM, 10 to 100 nM and > 1 nM.
Regarding `COC(=O)N[C@H](C(=O)N1CCC[C@H]1c1ncc(-c2ccc(-c3ccc(-c4ccc([C@@H]5CCCN5C(=O)N(NC(=O)OC)C(C)C)[nH]4)cc3)cc2)[nH]1)C(C)C` [AG_081_A], the EC50 was 0.101 to 1 nM in series [1] (Hepatitis C virus, 72 h) and 10 to 100 nM in series [3]. Moreover, the CC50 at 3 days in series [2] is > 5 nM.
Turning to `COC(=O)N[C@H](C(=O)N1CCC[C@H]1c1ncc(-c2ccc(-c3ccc(-c4cnc(C5C6CCC(C6)[C@@H]5C(=O)NCc5cccnc5C(F)(F)F)[nH]4)cc3)cc2)[nH]1)[C@@H](C)OC` (stereo partly drawn) [AA_255_A], the concentration giving a half-maximal response (EC50) in series [1] (Hepatitis C virus, 72 h) was 0.001 to 0.1 nM; in series [3], 10 to 100 nM. In series [2], the CC50 at 3 days is > 1 nM.
The like results for `COC(=O)N[C@H](C(=O)N1CCC[C@H]1c1ncc(-c2ccc(-c3ccc(-c4cnc([C@H]5C6CCC(C6)[C@@H]5C(=O)NCc5cccnc5)[nH]4)cc3)cc2C)[nH]1)C(C)C` (stereo partly drawn) [AA_211_A] were, in that order, 0.001 to 0.1 nM, 1 to 10 nM and > 1 nM.
`COC(=O)N[C@H](C(=O)N1CCC[C@H]1c1ncc(-c2ccc(-c3ccc(-c4cnc(C5C6CCC(C6)[C@@H]5C(=O)NCCO)[nH]4)cc3)cc2)[nH]1)[C@@H](C)OC` (stereo partly drawn) [AA_220_B]: the EC50 was in the range of 1 to 10 nM in series [1] (Hepatitis C virus, 72 h) and 10 to 100 nM in series [3]. In addition, the CC50 at 3 days in series [2] is > 1 nM.
The like results for `COC(=O)N[C@H](C(=O)N1CCCC1c1ccc(-c2ccc(-c3ccc(-c4ccc(C5CCCN5C(=O)[C@@H](NC(=O)OC)C(C)C)[nH]4)cc3)cc2)[nH]1)C(C)C` (stereo partly drawn) [AG_011] were, in that order, 0.001 to 0.1 nM, 10 to 100 nM and > 1 nM.
The like results for `O=C(NCc1cccnc1)[C@H]1C2CCC(C2)C1c1ncc(-c2ccc(-c3ccc(-c4cnc([C@@H]5C6CCC(C6)[C@H]5C(=O)NCc5cccnc5)[nH]4)cc3)cc2)[nH]1` (stereo partly drawn) [AA_180] were, in that order, 1 to 10 nM, 10 to 100 nM and > 10 nM.
Take `COC(=O)N[C@H](C(=O)N1CCC[C@H]1c1ncc(-c2ccc(-c3ccc(-c4cnc([C@@H]5C6CCC(C6)[C@H]5C(=O)N(C)c5ccccn5)[nH]4)cc3)cc2)[nH]1)C(C)C` (stereo partly drawn) [AA_195_B]: the EC50 in series [1] (Hepatitis C virus, 72 h) was 0.001 to 0.1 nM; in series [3], 1 to 10 nM. Besides, the CC50 at 3 days in series [2] was > 1 nM.
The like results for `COC(=O)N[C@H](C(=O)N1CCCC1c1ncc(-c2ccc(-c3ccc(-c4[nH]c([C@@H]5CCCN5C(=O)[C@@H](NC(=O)OC)C(C)C)c5c4CCC5)cc3)cc2)[nH]1)C(C)C` (stereo partly drawn) [AG_014_A] were, in that order, 0.001 to 0.1 nM, 1 to 10 nM and > 10 nM.
The like results for `COC(=O)N[C@H](C(=O)N1CCC[C@H]1c1ncc(-c2ccc(-c3ccc(-c4cnc(C5[C@H]6CC[C@H](C6)[C@H]5C(=O)NCc5cnccn5)[nH]4)cc3)cc2)[nH]1)C(C)C` (stereo partly drawn) [AA_206_ENDOA2] were, in that order, 0.001 to 0.1 nM, 0.101 to 1 nM and > 1 nM.
The like results for `COC(=O)N[C@H](C(=O)N1CCC[C@H]1c1ncc(-c2ccc(-c3ccc(-c4cnc([C@@H]5C6CCC(C6)[C@H]5C(=O)NCc5nccs5)[nH]4)cc3)cc2)[nH]1)C(C)C` (stereo partly drawn) [AA_208_B] were, in that order, 0.001 to 0.1 nM, 1 to 10 nM and > 1 nM.
With `COC(=O)N[C@H](C(=O)N1CCC[C@H]1c1ncc(-c2ccc(-c3ccc(-c4cnc([C@H]5C6CCC(C6)[C@@H]5C(=O)NCc5ccc(C(C)C)nc5)[nH]4)cc3)cc2)[nH]1)C(C)C` (stereo partly drawn) [AA_236_A], the EC50 in series [1] (Hepatitis C virus, 72 h) lay in the range of 0.001 to 0.1 nM; in series [3], 10 to 100 nM. The cytotoxic concentration (CC50) at 3 days in series [2] was > 1 nM.
As for `COC(=O)N[C@H](C(=O)N1CCC[C@H]1c1cnc(-c2ccc(-c3ccc(-c4ncc(C5C6CCC(C6)[C@@H]5C(=O)N(NC(=O)OC)C(C)C)[nH]4)cc3)cc2C)[nH]1)C(C)C` (stereo partly drawn) [AA_169_B], the EC50 lay within 0.001 to 0.1 nM in series [1] (Hepatitis C virus, 72 h) and 10 to 100 nM in series [3]. Moreover, the CC50 at 3 days in series [2] is > 5 nM.
On to `COC(=O)N[C@H](C(=O)N1CCC[C@@H]1c1[nH]c(-c2ccc(-c3ccc(-c4cnc([C@@H]5CCCN5C(=O)[C@@H](NC(=O)OC)C(C)C)[nH]4)cc3)cc2)c2c1CCO2)C(C)C` [AG_122_B], for which the EC50 in series [1] (Hepatitis C virus, 72 h) was in the range of 0.101 to 1 nM; in series [3] it was 10 to 100 nM. Further, the CC50 at 3 days in series [2] was > 1 nM.
The like results for `COC(=O)N[C@H](C(=O)N1CCC[C@H]1c1ncc(-c2ccc(-c3ccc(-c4cnc(C5C6CCC(C6)[C@@H]5C(=O)NCc5ccc(C(C)C)nc5)[nH]4)cc3)cc2)[nH]1)[C@@H](C)OC` (stereo partly drawn) [AA_265_A] were, in that order, 0.101 to 1 nM, 10 to 100 nM and > 1 nM.
The like results for `COC(=O)N[C@H](C(=O)N1CCC[C@H]1c1ncc(-c2ccc(-c3ccc(-c4cnc([C@H]5C6CCC(C6)[C@@H]5C(=O)N(C)c5ccccn5)[nH]4)cc3)cc2)[nH]1)C(C)C` (stereo partly drawn) [AA_195_A] were, in that order, 0.001 to 0.1 nM, 0.101 to 1 nM and > 1 nM.
The like results for `COC(=O)N[C@H](C(=O)N1CCC[C@H]1c1ncc(-c2ccc(-c3ccc(-c4[nH]c([C@@H]5CCCN5C(=O)[C@@H](NC(=O)OC)C(C)C)c5c4CCCC5)cc3)cc2)[nH]1)C(C)C` [AG_015_A] were, in that order, 0.001 to 0.1 nM, 10 to 100 nM and > 1 nM.
On to `COC(=O)N[C@H](C(=O)N1CCC[C@H]1c1ncc(-c2ccc(-c3ccc(-c4cnc(C5C6CCC(C6)[C@@H]5C(=O)NCc5cccnc5F)[nH]4)cc3)cc2)[nH]1)[C@@H](C)OC` (stereo partly drawn) [AA_252_A], for which the EC50 in series [1] (Hepatitis C virus, 72 h) lay in the range of 0.101 to 1 nM; in series [3] it was 1 to 10 nM. Also, the CC50 at 3 days in series [2] was > 1 nM.
In the case of `COC(=O)NC(C(=O)N1CCCC1c1[nH]c(-c2ccc(-c3ccc(-c4cnc([C@@H]5CCCN5C(=O)[C@@H](NC(=O)OC)C(C)C)[nH]4)cc3)cc2)c2c1CCC2)C1CCOC1` (single isomer, unassigned) [AG_025_A], the EC50 lay in the range of 0.001 to 0.1 nM in series [1] and 10 to 100 nM in series [3]. Moreover, in series [2], the CC50 at 3 days was > 10 nM.
In the case of `COC(=O)NC(C(=O)N1CCCC1c1[nH]c(-c2ccc(-c3ccc(-c4cnc([C@@H]5CCCN5C(=O)[C@@H](NC(=O)OC)C(C)C)[nH]4)cc3)cc2)c2c1CCCC2)C1CCOC1` (stereo partly drawn) [AG_027], the half-maximal effective concentration (EC50) in series [1] (Hepatitis C virus, 72 h) lay within 0.101 to 1 nM; in series [3] it was 10 to 100 nM. Moreover, in series [2], the CC50 at 3 days was > 10 nM.
The like results for `COC(=O)N[C@H](C(=O)N1CCC[C@H]1c1ncc(-c2ccc(-c3ccc(-c4[nH]c([C@@H]5CCCN5C(=O)[C@@H](NC(=O)OC)C(C)C)c5c4COC5)cc3)cc2)[nH]1)C(C)C` [AG_060_B] were, in that order, 0.001 to 0.1 nM, 0.001 to 0.1 nM and > 10 nM.
The like results for `COC(=O)N[C@H](C(=O)N1CC2(CC2)C[C@H]1c1ncc(-c2ccc(-c3ccc(-c4[nH]c([C@@H]5CCCN5C(=O)[C@@H](NC(=O)OC)[C@@H](C)OC)c5c4COC5)cc3)cc2)[nH]1)[C@@H](C)OC` [AG_116] were, in that order, 0.001 to 0.1 nM, 0.001 to 0.1 nM and > 1 nM.
The like results for `COC(=O)N[C@H](C(=O)N1CCC[C@H]1c1ncc(-c2ccc(-c3ccc(-c4cnc([C@H]5C6CCC(C6)[C@@H]5C(=O)NCCc5ccncc5)[nH]4)cc3)cc2)[nH]1)C(C)C` (stereo partly drawn) [AA_209_A] were, in that order, 0.001 to 0.1 nM, 10 to 100 nM and > 1 nM.
`COC(=O)N[C@H](C(=O)N1CCC[C@H]1c1cnc(-c2ccc(-c3ccc(-c4ncc(C5C6CCC(C6)[C@H]5C(=O)N(NC(=O)OC)C(C)C)[nH]4)cc3)cc2OC)[nH]1)C(C)C` (stereo partly drawn) [AA_166_A]: the concentration for a half-maximal effect (EC50) in series [1] (Hepatitis C virus, 72 h) was 0.001 to 0.1 nM; in series [3], 10 to 100 nM. Further, the CC50 at 3 days in series [2] is > 5 nM.
As for `COC(=O)N[C@H](C(=O)N1CCC[C@H]1c1ncc(-c2ccc(-c3ccc(-c4cnc(C5C6CCC(C6)[C@H]5C(=O)NCc5cccnc5)[nH]4)cc3)cc2)[nH]1)[C@@H](C)OC` (stereo partly drawn) [AA_179_A], the EC50 in series [1] (Hepatitis C virus, 72 h) lay in the range of 0.001 to 0.1 nM; in series [3], 1 to 10 nM. The CC50 at 3 days in series [2] was > 1 nM.

These data come from patent US10160771B2, “Hepatitis C virus inhibitors and uses thereof in preparation of drugs” (priority 2014, dated 2018).
